{"source": "patent US5603963A", "about": "“Method for the treatment of retroviral diseases such as acquired immune deficiency syndrome utilizing (pseudo)halogen complexes of gold(1)” (priority 1994, dated 1997)", "key": {"AIDS": {"test_system": "AIDS", "settings": "cited from earlier work"}, "[1]": {"test_system": "HIV reverse transcriptase", "settings": "in vitro; cited from earlier work"}, "HIV": {"test_system": "HIV", "settings": "CEM cells; concentrations in the 6ppm range; cited from earlier work"}, "cells": {"test_system": "cells", "settings": "cited from earlier work"}, "[2]": {"parameters": "species or system patients", "settings": "human, in vivo", "description": "A powerful means to attack the AIDS virus (HIV) would be to find a specific inhibitor of the viral reverse transcriptase. If this enzyme cannot function, viral replication cannot take place. The significant aspect of the viral life cycle which must be considered is that the viral replication takes place intracellularly. Thus, agents which may work in a test tube to inhibit the enzyme activity will have no effect on the virus itself unless the agent is capable of entering cells and developing an effective intracellular concentration."}}, "note": "Where two headings read alike, the source gives them in different places.", "data": [{"compound": "Cc1cn([C@H]2C[C@H](N=[N+]=[N-])[C@@H](CO)O2)c(=O)[nH]c1=O", "note": "[AZT, azidothymidine]", "values": [{"measurement": "side effects", "setting": "AIDS; AIDS", "result": "significant side effects"}]}, {"compound": "O=c1[nH]cnc2c1ncn2[C@H]1CC[C@@H](CO)O1", "note": "[DDI, dideoxyinosine]", "values": [{"measurement": "side effects", "setting": "AIDS; in vivo", "result": "significant side effects"}]}, {"compound": "bis(thioglucose)gold(I)", "values": [{"measurement": "inhibition of HIV reverse transcriptase", "setting": "[1]", "result": "does inhibit HIV reverse transcriptase"}, {"measurement": "inhibition of the infectivity of HIV", "setting": "HIV", "result": "inhibit the infectivity of HIV"}]}, {"compound": "gold(I) thioglucose [Solganol]", "values": [{"measurement": "inhibition of HIV reverse transcriptase", "setting": "[1]", "result": "inhibit HIV reverse transcriptase"}, {"measurement": "ability to enter cells", "setting": "cells", "result": "inherently unable to enter cells"}, {"measurement": "levels of gold inside cells (in words)", "setting": "[2]", "result": "well below the levels required to inhibit the enzyme in vitro"}, {"measurement": "levels of gold inside cells relative to amount found in blood", "setting": "[2]", "result": "less than 5%"}]}, {"compound": "sodium gold(I) thiomalate [Myochrysine]", "values": [{"measurement": "gold remaining in the incubation medium", "setting": "whole blood", "result": "~90", "unit": "%"}, {"measurement": "total gold found in the cell lysate", "setting": "whole blood", "result": "about 5%"}, {"measurement": "total gold in Cell lysate", "setting": "whole blood", "result": 4, "unit": "%"}, {"measurement": "total gold in Membranes", "setting": "whole blood", "result": 6, "unit": "%"}, {"measurement": "total gold in Supernatant", "setting": "whole blood", "result": 90, "unit": "%"}, {"measurement": "total gold in Cell lysate", "setting": "red blood cells", "result": 6, "unit": "%"}, {"measurement": "total gold in Membranes", "setting": "red blood cells", "result": 10, "unit": "%"}, {"measurement": "total gold in Supernatant", "setting": "red blood cells", "result": 84, "unit": "%"}]}]}
